# In patent US10076519B2 (CYTOKINETICS, INC., priority 2010, dated 2018):
# Test system: rabbit skeletal myofibrils (fast skeletal myofibrils)
# Assay: Activation of fast skeletal myofibrils (PUMA assay, PK/LDH-coupled ATPase at pCa25)
# Type: biochemical
# Settings: AC1.4 determined according to the procedure of Example 39; reported as class symbols
# In short: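 ATPase activity of Triton-washed rabbit skeletal myofibrils, roughly 90% fast fibres, tracked by NADH loss at 340 nm through a PK/LDH-coupled ADP-regenerating system. Calcium set to 25% of maximal activity (pCa25), in PIPES 12 mM pH 6.8 with 2 mM MgCl2 and 1 mM DTT; AC1.4 reported.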
row,SMILES,Mean AC1.4
1,Nc1n[nH]c2ccc(-c3ccc(NCC4(c5ccccc5F)CCC4)nn3)cc12 [[6-(3-amino(1H-indazol-5-yl))pyridazin-3-yl]{[(2-fluorophenyl)cyclobutyl]meth-yl}amine],A (A=<1 uM)
2,Nc1n[nH]c2ccc(-c3ccc(NCC4(c5ccccc5F)CCCC4)nn3)cc12 [[6-(3-amino(1H-indazol-5-yl))pyridazin-3-yl]{[(2-fluorophenyl)cyclopentyl]meth-yl}amine],A (A=<1 uM)
3,Nc1n[nH]c2ccc(-c3ccc(NCC4(c5ccccc5F)CC4)nn3)cc12 [[6-(3-amino(1H-indazol-5-yl))pyridazin-3-yl]{[(2-fluorophenyl)cyclopropyl]meth-yl}amine],A (A=<1 uM)
4,Nc1n[nH]c2ccc(-c3ccc(NCC4(c5ncccc5F)CCC4)nn3)cc12 [[6-(3-amino(1H-indazol-5-yl))pyridazin-3-yl]{[(3-fluoro(2-pyridyl))cyclobutyl]methyl}amine],A (A=<1 uM)
5,Nc1n[nH]c2ccc(-c3ccc(NCC4(c5ccc(F)cc5)CCC4)nn3)cc12 [[6-(3-amino(1H-indazol-5-yl))pyridazin-3-yl]{[(4-fluorophenyl)cyclobutyl]meth-yl}amine],A (A=<1 uM)
6,Nc1n[nH]c2ccc(-c3ccc(NCC4(c5ccc(F)cc5)CCCCC4)nn3)cc12 [[6-(3-amino(1H-indazol-5-yl))pyridazin-3-yl]{[(4-fluorophenyl)cyclohexyl]meth-yl}amine],A (A=<1 uM)
7,Nc1n[nH]c2ccc(-c3ccc(NCC4(c5ccc(F)cc5)CCCC4)nn3)cc12 [[6-(3-amino(1H-indazol-5-yl))pyridazin-3-yl]{[(4-fluorophenyl)cyclopentyl]meth-yl}amine],A (A=<1 uM)
8,Nc1n[nH]c2ccc(-c3ccc(NCC4(c5ccc(F)cc5)CC4)nn3)cc12 [[6-(3-amino(1H-indazol-5-yl))pyridazin-3-yl]{[(4-fluorophenyl)cyclopropyl]meth-yl}amine],A (A=<1 uM)
9,Nc1n[nH]c2ccc(-c3ccc(NCC4(c5ccc(F)cn5)CCC4)nn3)cc12 [[6-(3-amino(1H-indazol-5-yl))pyridazin-3-yl]{[(5-fluoro(2-pyridyl))cyclobutyl]methyl}amine],A (A=<1 uM)
10,Nc1cccc(-c2ccc(NCC3(c4ncccc4F)CCC3)nn2)c1 [[6-(3-aminophenyl)pyridazin-3-yl]{[(3-fluoro(2-pyridyl))cyclobutyl]methyl}amine],A (A=<1 uM)
11,CC(C)(CNc1ccc(-c2cccc(Cl)c2)nn1)c1ccc(F)cc1 [[6-(3-chlorophenyl)pyridazin-3-yl][2-(4-fluorophenyl)-2-methylpropyl]amine],A (A=<1 uM)
12,Nc1ccc(-c2ccc(NCC3(c4ncccc4F)CCC3)nn2)cc1F [[6-(4-amino-3-fluorophenyl)pyridazin-3-yl]{[(3-fluoro(2-pyridyl))cyclobutyl]meth-yl}amine],A (A=<1 uM)
13,CC(C)(CNc1ccc(-c2ccc(N)cc2)nn1)c1ccc(F)cc1 [[6-(4-aminophenyl)pyridazin-3-yl][2-(4-fluorophenyl)-2-methylpropyl]amine],A (A=<1 uM)
14,Nc1ccc(-c2ccc(NCC3(c4ncccc4F)CCC3)nn2)cc1 [[6-(4-aminophenyl)pyridazin-3-yl]{[(3-fluoro(2-pyridyl))cyclobutyl]methyl}amine],A (A=<1 uM)
15,CC(C)(CNc1ccc(-c2ccc(Cl)cc2)nn1)c1ccc(F)cc1 [[6-(4-chlorophenyl)pyridazin-3-yl][2-(4-fluorophenyl)-2-methylpropyl]amine],B (B=1-10 uM)
16,Nc1ccc(-c2ccc(NCC3(c4ncccc4F)CCC3)nn2)nc1 [[6-(5-amino(2-pyridyl))pyridazin-3-yl]{[(3-fluoro(2-pyridyl))cyclobutyl]methyl}amine],A (A=<1 uM)
17,CC(C)(CNc1ccc(-c2cc(N)[nH]n2)nn1)c1ccc(F)cc1 [[6-(5-aminopyrazol-3-yl)pyridazin-3-yl][2-(4-fluorophenyl)-2-methylpropyl]amine],B (B=1-10 uM)
18,CC(C)(CNc1ccc(-c2cccc(N)n2)nn1)c1ccc(F)cc1 [[6-(6-amino(2-pyridyl))pyridazin-3-yl][2-(4-fluorophenyl)-2-methylpropyl]amine],B (B=1-10 uM)
19,Nc1ccc(-c2ccc(NCC3(c4ncccc4F)CCC3)nn2)cn1 [[6-(6-amino(3-pyridyl))pyridazin-3-yl]{[(3-fluoro(2-pyridyl))cyclobutyl]methyl}amine],A (A=<1 uM)

# Further lines, results first:
row,Mean AC1.4,SMILES
1,C (C=10-20 uM),COCc1ccccc1C(C)(C)CNc1ccc(-c2ccc3[nH]nc(N)c3c2)nn1 [[6-(3-amino(1H-indazol-5-yl))pyridazin-3-yl]{2-[2-(methoxymethyl)phenyl]-2-methylpropyl}amine]
2,C (C=10-20 uM),CC(C)(CNc1ccc(-c2ccc3[nH]nc(N)c3c2)nn1)c1cccc(CN)c1 [[6-(3-amino(1H-indazol-5-yl))pyridazin-3-yl]{2-[3-(aminomethyl)phenyl]-2-methylpropyl}amine]
3,D (D=>20 uM),CC(C)(CNc1ccc(-c2ccc3[nH]nc(N)c3c2)nn1)c1ccc(CN)cc1 [[6-(3-amino(1H-indazol-5-yl))pyridazin-3-yl]{2-[4-(aminomethyl)phenyl]-2-methylpropyl}amine]
4,B (B=1-10 uM),CC(C)(CNc1ccc(-c2ccc3c(N)n[nH]c3c2)nn1)c1ncccc1F [[6-(3-amino(1H-indazol-6-yl))pyridazin-3-yl][2-(3-fluoro(2-pyridyl))-2-methylpropyl]amine]
5,A (A=<1 uM),CC(C)(CNc1ccc(-c2ccc3c(N)n[nH]c3c2)nn1)c1ccc(F)cc1 [[6-(3-amino(1H-indazol-6-yl))pyridazin-3-yl][2-(4-fluorophenyl)-2-methylpropyl]amine]
6,C (C=10-20 uM),CC(C)(CNc1ccc(-c2ccc3c(N)n[nH]c3c2)nn1)c1ccc(F)cn1 [[6-(3-amino(1H-indazol-6-yl))pyridazin-3-yl][2-(5-fluoro(2-pyridyl))-2-methylpropyl]amine]
7,B (B=1-10 uM),CC(C)(CNc1ccc(-c2cccc3c(N)n[nH]c23)nn1)c1ccc(F)cc1 [[6-(3-amino(1H-indazol-7-yl))pyridazin-3-yl][2-(4-fluorophenyl)-2-methylpropyl]amine]
8,B (B=1-10 uM),Cn1nc(N)c2cc(-c3ccc(NCC(C)(C)c4ccc(F)cc4)nn3)ccc21 [[6-(3-amino-1-methyl(1H-indazol-5-yl))pyridazin-3-yl][2-(4-fluorophenyl)-2-methylpropyl]amine]
9,B (B=1-10 uM),"CC(C)(CNc1ccc(-c2ccc3onc(N)c3c2)nn1)c1ccc(F)cc1 [[6-(3-aminobenzo[3,4-d]isoxazol-5-yl)pyridazin-3-yl][2-(4-fluorophenyl)-2-methylpropyl]amine]"
10,A (A=<1 uM),CC(C)(CNc1ccc(-c2ccc3c(N)noc3c2)nn1)c1ccc(F)cc1 [[6-(3-aminobenzo[d]isoxazol-6-yl)pyridazin-3-yl][2-(4-fluorophenyl)-2-methylpropyl]amine]
11,A (A=<1 uM),CC(C)(CNc1ccc(-c2cccc(N)c2)nn1)c1ccc(F)cc1 [[6-(3-aminophenyl)pyridazin-3-yl][2-(4-fluorophenyl)-2-methylpropyl]amine]
12,B (B=1-10 uM),CCc1n[nH]c2ccc(-c3ccc(NCC(C)(C)c4ccc(F)cc4)nn3)cc12 [[6-(3-ethyl(1H-indazol-5-yl))pyridazin-3-yl][2-(4-fluorophenyl)-2-methylpropyl]amine]
13,A (A=<1 uM),CC(C)(CNc1ccc(-c2ccc(N)nc2)nn1)c1ccc(F)cc1 [[6-(6-amino(3-pyridyl))pyridazin-3-yl][2-(4-fluorophenyl)-2-methylpropyl]amine]

# Same assay, conditions: median AC1.4 class, procedure of Example 39
row,Mean AC1.4,SMILES
1,A (A=<1 uM),Nc1n[nH]c2ccc(-c3ccc(NC[C@]4(c5ncccc5F)C[C@H](F)C4)nn3)cc12 [[6-(3-amino(1H-indazol-5-yl))pyridazin-3-yl]{[3-fluoro-1-(3-fluoro(2-pyridyl))cyclobutyl]methyl}amine]
2,C (C=10-20 uM),Fc1cccnc1C1(CNc2ccc(-c3ncccc3Cl)nn2)CCC1 [[6-(3-chloro(2-pyridyl))pyridazin-3-yl]{[(3-fluoro(2-pyridyl))cyclobutyl]methyl}amine]
3,B (B=1-10 uM),Fc1ccc(C2(Nc3ccc(-c4ccncc4F)nn3)CCC2)cc1 [[6-(3-fluoro(4-pyridyl))pyridazin-3-yl][(4-fluorophenyl)cyclobutyl]amine]
4,B (B=1-10 uM),"Fc1cccnc1C1(CNc2ccc(-c3ncc(-c4nn[nH]n4)s3)nn2)CCC1 [[6-(5-(2H-1,2,3,4-tetraazol-5-yl)(1,3-thiazol-2-yl))pyridazin-3-yl]{[(3-fluoro(2-pyridyl))cyclobutyl]methyl}amine]"
5,B (B=1-10 uM),"Nc1ccc2nc(-c3ccc(NCC4(c5ncccc5F)CCC4)nn3)sc2n1 [[6-(5-amino(1,3-thiazolino[5,4-b]pyridin-2-yl))pyridazin-3-yl]{[(3-fluoro(2-pyridyl))cyclobutyl]methyl}amine]"
6,C (C=10-20 uM),"Fc1cccnc1C1(CNc2ccc(-c3nc4ccc(Cl)nc4s3)nn2)CCC1 [[6-(5-chloro(1,3-thiazolino[5,4-b]pyridin-2-yl))pyridazin-3-yl]{[(3-fluoro(2-pyridyl))cyclobutyl]methyl}amine]"

# Same assay, conditions: median AC1.4 reported as class; procedure of Example 39
row,Mean AC1.4,SMILES
1,A (A=<1 uM),Nc1ccc(-c2ccc(NC[C@]3(c4ncccc4F)C[C@H](F)C3)nn2)cn1 [[6-(6-amino(3-pyridyl))pyridazin-3-yl]{[3-fluoro-1-(3-fluoro(2-pyridyl))cyclobutyl]methyl}amine]
2,D (D=>20 uM),"NC1CCc2nc(-c3ccc(NCC4(c5ncccc5F)CCC4)nn3)sc2C1 (stereo not shown) [[6-(6-amino(4,5,6,7-tetrahydrobenzothiazol-2-yl))pyridazin-3-yl]{[(3-fluoro(2-pyridyl))cyclobutyl]methyl}amine]"
